Laboratory results reported in ChEMBL document CHEMBL3045245, “Synthesis and antitumor activities of certain novel 2-amino-9-(4-halostyryl)-4H-pyrano[3,2-h]quinoline derivatives” (Med Chem Res, 2012).
≈ marks a conversion by molar mass, not a printed value.

Experiments:
HepG2 [1] = test: Cytotoxicity against Homo sapiens (human) HepG2 cells after 48 hr by MTT assay; assay type: functional, cell-based; conditions: HepG2, 48 h
HepG2 [2] = test: Cytotoxicity against Homo sapiens (human) HepG2 cells assessed as cell viability at 1.56 ug/ml after 48 hr by MTT assay; assay type: functional; conditions: HepG2, 48 h, read-out: Activity
HepG2 [3] = test: Cytotoxicity against Homo sapiens (human) HepG2 cells assessed as cell viability at 6.25 ug/ml after 48 hr by MTT assay; assay type: functional; conditions: HepG2, 48 h, read-out: Activity
HepG2 [4] = test: Cytotoxicity against Homo sapiens (human) HepG2 cells assessed as cell viability at 3.125 ug/ml after 48 hr by MTT assay; assay type: functional; conditions: HepG2, 48 h, read-out: Activity
HepG2 [5] = test: Cytotoxicity against Homo sapiens (human) HepG2 cells assessed as cell viability at 25 ug/ml after 48 hr by MTT assay; assay type: functional; conditions: HepG2, 48 h, read-out: Activity
HepG2 [6] = test: Cytotoxicity against Homo sapiens (human) HepG2 cells assessed as cell viability at 12.5 ug/ml after 48 hr by MTT assay; assay type: functional; conditions: HepG2, 48 h, read-out: Activity
[7] = Cytotoxicity against Homo sapiens (human) HCT cells after 48 hr by MTT assay; assay type: functional, cell-based
HepG2 [8] = test: Cytotoxicity against Homo sapiens (human) HepG2 cells assessed as cell viability at 50 ug/ml after 48 hr by MTT assay; assay type: functional; conditions: HepG2, 48 h, read-out: Activity
[9] = Cytotoxicity against Homo sapiens (human) HCT cells assessed as cell viability at 1.56 ug/ml after 48 hr by MTT assay; assay type: functional; conditions: read-out: Activity
[10] = Cytotoxicity against Homo sapiens (human) HCT cells assessed as cell viability at 3.125 ug/ml after 48 hr by MTT assay; assay type: functional; conditions: read-out: Activity
[11] = Cytotoxicity against Homo sapiens (human) HCT cells assessed as cell viability at 6.25 ug/ml after 48 hr by MTT assay; assay type: functional; conditions: read-out: Activity
[12] = Cytotoxicity against Homo sapiens (human) HCT cells assessed as cell viability at 12.5 ug/ml after 48 hr by MTT assay; assay type: functional; conditions: read-out: Activity
[13] = Cytotoxicity against Homo sapiens (human) HCT cells assessed as cell viability at 25 ug/ml after 48 hr by MTT assay; assay type: functional; conditions: read-out: Activity
[14] = Cytotoxicity against Homo sapiens (human) HCT cells assessed as cell viability at 50 ug/ml after 48 hr by MTT assay; assay type: functional; conditions: read-out: Activity
MCF7 [15] = test: Cytotoxicity against Homo sapiens (human) MCF7 cells after 48 hr by MTT assay; assay type: functional, cell-based; conditions: MCF7, 48 h
MCF7 [16] = test: Cytotoxicity against Homo sapiens (human) MCF7 cells assessed as cell viability at 1.56 ug/ml after 48 hr by MTT assay; assay type: functional; conditions: MCF7, 48 h, read-out: Activity
MCF7 [17] = test: Cytotoxicity against Homo sapiens (human) MCF7 cells assessed as cell viability at 3.125 ug/ml after 48 hr by MTT assay; assay type: functional; conditions: MCF7, 48 h, read-out: Activity
MCF7 [18] = test: Cytotoxicity against Homo sapiens (human) MCF7 cells assessed as cell viability at 6.25 ug/ml after 48 hr by MTT assay; assay type: functional; conditions: MCF7, 48 h, read-out: Activity
MCF7 [19] = test: Cytotoxicity against Homo sapiens (human) MCF7 cells assessed as cell viability at 12.5 ug/ml after 48 hr by MTT assay; assay type: functional; conditions: MCF7, 48 h, read-out: Activity
MCF7 [20] = test: Cytotoxicity against Homo sapiens (human) MCF7 cells assessed as cell viability at 25 ug/ml after 48 hr by MTT assay; assay type: functional; conditions: MCF7, 48 h, read-out: Activity
MCF7 [21] = test: Cytotoxicity against Homo sapiens (human) MCF7 cells assessed as cell viability at 50 ug/ml after 48 hr by MTT assay; assay type: functional; conditions: MCF7, 48 h, read-out: Activity

SMILES | IC50 (HepG2 [1]) [µg/mL] | viability at 1.56 µg/mL (HepG2 [2]) [%] | viability at 6.25 µg/mL (HepG2 [3]) [%] | viability at 3.125 µg/mL (HepG2 [4]) [%] | viability at 25 µg/mL (HepG2 [5]) [%] | viability at 12.5 µg/mL (HepG2 [6]) [%] | IC50 [7] [µg/mL] | viability at 50 µg/mL (HepG2 [8]) [%] | viability at 1.56 µg/mL [9] [%] | viability at 3.125 µg/mL [10] [%] | viability at 6.25 µg/mL [11] [%] | viability at 12.5 µg/mL [12] [%] | viability at 25 µg/mL [13] [%] | viability at 50 µg/mL [14] [%] | IC50 (MCF7 [15]) [µg/mL] | viability at 1.56 µg/mL (MCF7 [16]) [%] | viability at 3.125 µg/mL (MCF7 [17]) [%] | viability at 6.25 µg/mL (MCF7 [18]) [%] | viability at 12.5 µg/mL (MCF7 [19]) [%] | viability at 25 µg/mL (MCF7 [20]) [%] | also measured
CCOC(=O)C1=C(N)Oc2c(ccc3ccc(/C=C/c4ccc(F)cc4)nc23)C1c1ccc(Cl)cc1 (centres undefined) | 47.5 (≈ 94.8 µM) | 98.9 | 85.1 | 96.4 | 69 | 79.4 | 26.2 (≈ 52.3 µM) | 45.2 | 98.9 | 80.6 | 73.1 | 69.5 | 51.3 | 19.8 | 37.9 (≈ 75.7 µM) | 98.5 | 92.1 | 84.7 | 73.5 | 61.2 | viability at 50 µg/mL (MCF7 [21]): 34.6%
N#CC1=C(N)Oc2c(ccc3ccc(/C=C/c4ccc(Cl)cc4)nc23)C1c1ccc(Cl)cc1 (centres undefined) | 48.2 (≈ 102 µM) | 95.4 | 79.2 | 85.8 | 68.2 | 74 | 4.8 (≈ 10.2 µM) | 48.4 | 69.1 | 59 | 42.6 | 33.8 | 29 | 24.7 | 5.6 (≈ 11.9 µM) | 86.6 | 61.9 | 45.4 | 39.7 | 33.8 | viability at 50 µg/mL (MCF7 [21]): 29.6%
N#CC1=C(N)Oc2c(ccc3ccc(/C=C/c4ccc(Cl)cc4)nc23)C1c1ccc(Br)cc1 (centres undefined) | 23.2 (≈ 45.1 µM) | 94.6 | 77.2 | 87.9 | 44.9 | 69.6 | 11.9 (≈ 23.1 µM) | 33.8 | 80.4 | 72.5 | 69.8 | 47.8 | 34.2 | 27.4 | 12.5 (≈ 24.3 µM) | 98.5 | 83.1 | 61.8 | 50.3 | 39.9 | viability at 50 µg/mL (MCF7 [21]): 32.4%
N#CC1=C(N)Oc2c(ccc3ccc(/C=C/c4ccc(Br)cc4)nc23)C1c1ccc(Br)cc1 (centres undefined) | 8.7 (≈ 15.6 µM) | 74.3 | 41.4 | 54.8 | 25.7 | 34.1 | 12.7 (≈ 22.7 µM) | 16 | 95.7 | 90.7 | 80.5 | 51 | 33.5 | 24 | 3.9 (≈ 6.97 µM) | 61.1 | 53.1 | 40.6 | 31.7 | 27.4 | viability at 50 µg/mL (MCF7 [21]): 22.4%
N#CC1=C(N)Oc2c(ccc3ccc(/C=C/c4ccc(F)cc4)nc23)C1c1ccc(Cl)cc1 (centres undefined) | > 50 | 100 | 96.2 | 98.9 | 78.3 | 84.6 | 43.8 (≈ 96.5 µM) | 56.4 | 100 | 98.8 | 95.2 | 86.9 | 62.5 | 41.3 | 38.6 (≈ 85 µM) | 99.3 | 97.9 | 91.8 | 86.7 | 79.4 | viability at 50 µg/mL (MCF7 [21]): 28.5%
N#CC1=C(N)Oc2c(ccc3ccc(/C=C/c4ccc(F)cc4)nc23)C1c1ccc(Br)cc1 (centres undefined) | > 50 | 100 | 97.2 | 98.9 | 74.8 | 83.4 | > 50 | 63.4 | 100 | 98.6 | 94.8 | 91.1 | 83.4 | 57.6 | 42.5 (≈ 85.3 µM) | 100 | 96.9 | 91.8 | 80.2 | 67.8 | viability at 50 µg/mL (MCF7 [21]): 39.5%
CCOC(=O)C1=C(N)Oc2c(ccc3ccc(/C=C/c4ccc(Cl)cc4)nc23)C1c1ccc(Cl)cc1 (centres undefined) | 7.9 (≈ 15.3 µM) | 81.9 | 53 | 65.3 | 37.9 | 45.6 | 13 (≈ 25.1 µM) | 28.1 | 78.6 | 69.3 | 64.1 | 54.3 | 20.4 | 14.1 | 5.5 (≈ 10.6 µM) | 78.1 | 67.8 | 47.2 | 41.6 | 34.6 | viability at 50 µg/mL (MCF7 [21]): 27.2%
CCOC(=O)C1=C(N)Oc2c(ccc3ccc(/C=C/c4ccc(Cl)cc4)nc23)C1c1ccc(Br)cc1 (centres undefined) | 28.6 (≈ 50.9 µM) | 89.4 | 69.7 | 76.3 | 53.4 | 61.9 | 20.4 (≈ 36.3 µM) | 39.8 | 82.9 | 74.3 | 70.4 | 61.3 | 45.8 | 30.7 | 10.3 (≈ 18.3 µM) | 80.9 | 76 | 63.5 | 45.6 | 37.9 | viability at 50 µg/mL (MCF7 [21]): 29.7%
CCOC(=O)C1=C(N)Oc2c(ccc3ccc(/C=C/c4ccc(F)cc4)nc23)C1c1ccc(Br)cc1 (centres undefined) | 37.1 (≈ 68 µM) | 97.1 | 83.3 | 94.6 | 62.9 | 76.4 | 26.1 (≈ 47.9 µM) | 34.6 | 100 | 98.5 | 84.9 | 78.7 | 53.7 | 17.4 | 38.4 (≈ 70.4 µM) | 99.3 | 93.9 | 85.5 | 74.6 | 67 | viability at 50 µg/mL (MCF7 [21]): 37.6%
